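1) Cells in 96-well plates. 2) Compound, 48 h, 5 concentrations. 3) Linear interpolation between surrounding doses. 4) Unreached endpoint = highest concentration. Abbreviation: GI50, concentration required for 50% inhibition of growth. TGI: concentration producing complete growth inhibition.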
Each compound was assayed on MDA-MB-435 (assay: NCI anticancer screen, dose series, 48 h).

Row | Structure (SMILES) | TGI [µM] | GI50 [µM]
1 | O=C1NC(=O)c2ccc([N+](=O)[O-])c3cccc1c23 | 29.9 | 
2 | CN(C)CCCn1c2c(c3ccccc3c1=O)C(=O)c1ccccc1-2 | 12 | 2.82
3 | CN(C)CCNC(=O)c1cccc(C(=O)Nc2ccccc2)c1[N+](=O)[O-] | > 100 | 
4 | NC(N)=NCCCn1c2c(c3ccccc3c1=O)C(=O)c1ccccc1-2 | 71.5 | 25.9
5 | CC(=O)OC1Oc2ccccc2-c2oc(=O)c(-c3cc4ccc(N(C)C)cc4oc3=O)cc21 (stereo not drawn) | 46.8 | 13.3
6 | CC1(C)C2CC(O)C1(C)CC2=O (stereo not drawn) | > 100 | 
7 | COc1ccc2c(c1)C(=O)c1c-2n(CCCn2ccnc2)c(=O)c2ccccc12 | 3.24 | 0.67
8 | COc1cc2oc(-c3ccc(O)cc3)cc(=O)c2c(OC)c1OC | > 100 | 
9 | O=C(CCl)Nc1ccc(Cl)cc1 | 20.4 | 4.4
10 | O=S(=O)(/N=S(/Nc1ccccc1)C(Cl)Cl)c1ccccc1 (stereo not drawn) | > 100 | 
11 | Fc1cc(F)c(COc2cc(Cn3cnc4c(Cl)nc(Cl)nc43)ccc2C23CC4CC(CC(C4)C2)C3)cc1F | 33 | 17.3
12 | COc1ccc(N2C(=O)C3c4[nH]c5ccc(C)cc5c4C4CCC(C(C)(C)C)CC4C3C2=O)cc1 (stereo not drawn) | > 100 | 
13 | CC/C=C\C[C@@H]1C/C=C2/C(=O)C=C[C@H]2C/C=C\CCCC(=O)O1 | 0.845 | 0.25
14 | NC(=S)N/N=C/c1ccc(OC(=O)COc2ccc(Cl)cc2)cn1 | > 100 | 5.89
15 | O=C(N/N=C/c1cccc(O)c1O)c1ccccc1 | > 100 | 1.88
16 | c1ccc(C2=NNC3c4ccccc4-c4ccccc4N3C2)cc1 (stereo not drawn) | 68.1 | 
17 | COc1ccc(OC)c(/C=C/C(=O)N/N=C/c2ccc(Cl)cc2)c1 | 0.106 | 0.0263
18 | O=C1c2ccccc2-c2c1c1ccccc1c(=O)n2Cc1ccccc1 | > 100 | 

Row | Structure (SMILES) | TGI [µM] | GI50 [µM]
19 | COc1ccc(C(=O)c2cc(C)c(OC)c(C)c2)c(OC)c1N(C(=O)C(Cl)Cl)C(=O)C(Cl)Cl | 0.0625 | 0.021
20 | CCN(CC)c1sc(N(CC)CC)c2c1SSSSS2 | 2.09 | 0.844
21 | O=C(c1cccc(O)c1O)c1cn(Cc2ccc(F)cc2)c2cccc(O)c12 | 36.3 | 5.23
22 | Nc1ncc(-c2cnn(CCO)c2)c2scc(-c3ccc(NC(=O)Nc4cccc(F)c4)cc3)c12 | 1.83 | 0.209
23 | COc1cc(C2=NN(C(C)=O)C(c3ccc(OC(C)=O)cc3OC(C)=O)O2)c(OC(C)=O)c2ccccc12 (stereo not drawn) | 39 | 1.38
24 | COC(=O)Nc1nc2ccc(Oc3ccc(NC(=O)Nc4ccccc4)cc3)cc2[nH]1 | 0.12 | 0.0474
25 | O=C1c2c(Br)sc(Br)c2C(NC(=O)C(F)(F)F)C1O (stereo not drawn) | 54.3 | 
26 | CCOC(=O)c1cc(/C(=N\O)c2cc(OC)c(OC)c(OC)c2)n2cc(C)cc(C)c12 | 4.16 | 0.565
27 | CCN(CC)CCCC(C)Nc1c(C)cnc2cc(Cl)c(C)cc12 (stereo not drawn) | 20.1 | 7.8
28 | CC(=O)OC1CC(O)C23COC(O)C1(C)C2CC(O)C1(C)C3C(=O)C(O)C2(C)C(c3ccoc3)CC3OC321 (stereo not drawn) | > 100 | < 0.0152
29 | CCCCCCCC(CC(=O)NC(CO)C(=O)NC(CO)CC(C)C)OC(=O)CC(CCCCCCC)OC(=O)CC(CCCCCCC)OC1OC(C)C(O)C(OC2OC(C)C(O)C(OC(C)=O)C2O)C1O (stereo not drawn) | 23 | 
30 | O=C(CP(=O)(c1ccccc1)c1ccccc1)c1cccc(C(=O)CP(=O)(c2ccccc2)c2ccccc2)c1 | > 100 | 
31 | CCc1[nH]c(=O)nc(N)c1-c1ccc(N2CCCCC2)c([N+](=O)[O-])c1 | > 100 | 
32 | COC(=O)C(=O)C(C(=O)C(=O)Nc1ccccc1C(N)=O)c1nc2ccc(Cl)cc2[nH]c1=O (stereo not drawn) | > 100 | 
33 | NC(CC(=O)OCc1ccccc1)C(=O)OCc1ccccc1 (stereo not drawn) | > 100 | 
34 | CCC#CC[C@H]1C/C=C2/C(=O)C=C[C@@H]2C/C=C\CCCC(=O)O1 | 2.18 | 0.68
35 | CCN(CC)CCN1CC(O)=C(c2nc(-c3ccc(Cl)cc3)cs2)C1=N | 3.25 | 1.72

Each compound was assayed on SK-MEL-28 melanoma (assay: NCI anticancer screen, dose series, 48 h).

Row | Structure (SMILES) | TGI [µM] | GI50 [µM]
36 | O=C1NC(=O)c2ccc([N+](=O)[O-])c3cccc1c23 | 37.8 | 
37 | CN(C)CCCn1c2c(c3ccccc3c1=O)C(=O)c1ccccc1-2 | 18.3 | 3.97
38 | CN(C)CCNC(=O)c1cccc(C(=O)Nc2ccccc2)c1[N+](=O)[O-] | > 100 | 
39 | NC(N)=NCCCn1c2c(c3ccccc3c1=O)C(=O)c1ccccc1-2 | > 100 | 28.6
40 | CC(=O)OC1Oc2ccccc2-c2oc(=O)c(-c3cc4ccc(N(C)C)cc4oc3=O)cc21 (stereo not drawn) | 56.4 | 19.9
41 | CC1(C)C2CC(O)C1(C)CC2=O (stereo not drawn) | 14.8 | 
42 | COc1ccc2c(c1)C(=O)c1c-2n(CCCn2ccnc2)c(=O)c2ccccc12 | > 57.4 | 2.08
43 | COc1cc2oc(-c3ccc(O)cc3)cc(=O)c2c(OC)c1OC | > 100 | 
44 | O=C(CCl)Nc1ccc(Cl)cc1 | 22.1 | 9.31
45 | O=S(=O)(/N=S(/Nc1ccccc1)C(Cl)Cl)c1ccccc1 (stereo not drawn) | > 100 | 
46 | Fc1cc(F)c(COc2cc(Cn3cnc4c(Cl)nc(Cl)nc43)ccc2C23CC4CC(CC(C4)C2)C3)cc1F | 37.4 | 18.2
47 | COc1ccc(N2C(=O)C3c4[nH]c5ccc(C)cc5c4C4CCC(C(C)(C)C)CC4C3C2=O)cc1 (stereo not drawn) | 33.3 | 
48 | CC/C=C\C[C@@H]1C/C=C2/C(=O)C=C[C@H]2C/C=C\CCCC(=O)O1 | 1.85 | 0.424
49 | NC(=S)N/N=C/c1ccc(OC(=O)COc2ccc(Cl)cc2)cn1 | > 100 | 36.4
50 | O=C(N/N=C/c1cccc(O)c1O)c1ccccc1 | > 100 | 1.24
51 | c1ccc(C2=NNC3c4ccccc4-c4ccccc4N3C2)cc1 (stereo not drawn) | > 100 | 
52 | COc1ccc(OC)c(/C=C/C(=O)N/N=C/c2ccc(Cl)cc2)c1 | > 100 | 0.372

Row | Structure (SMILES) | TGI [µM] | GI50 [µM]
53 | O=C1c2ccccc2-c2c1c1ccccc1c(=O)n2Cc1ccccc1 | > 100 | 
54 | COc1ccc(C(=O)c2cc(C)c(OC)c(C)c2)c(OC)c1N(C(=O)C(Cl)Cl)C(=O)C(Cl)Cl | > 100 | 0.237
55 | CCN(CC)c1sc(N(CC)CC)c2c1SSSSS2 | 3.92 | 1.55
56 | O=C(c1cccc(O)c1O)c1cn(Cc2ccc(F)cc2)c2cccc(O)c12 | 19.5 | 6.01
57 | Nc1ncc(-c2cnn(CCO)c2)c2scc(-c3ccc(NC(=O)Nc4cccc(F)c4)cc3)c12 | 3.56 | 0.465
58 | COc1cc(C2=NN(C(C)=O)C(c3ccc(OC(C)=O)cc3OC(C)=O)O2)c(OC(C)=O)c2ccccc12 (stereo not drawn) | 23.2 | 1.27
59 | COC(=O)Nc1nc2ccc(Oc3ccc(NC(=O)Nc4ccccc4)cc3)cc2[nH]1 | 6.4 | 0.348
60 | O=C1c2c(Br)sc(Br)c2C(NC(=O)C(F)(F)F)C1O (stereo not drawn) | 43.7 | 
61 | CCN(CC)CCCC(C)Nc1c(C)cnc2cc(Cl)c(C)cc12 (stereo not drawn) | 8.99 | 2.49
62 | CC(=O)OC1CC(O)C23COC(O)C1(C)C2CC(O)C1(C)C3C(=O)C(O)C2(C)C(c3ccoc3)CC3OC321 (stereo not drawn) | > 100 | > 100
63 | CCCCCCCC(CC(=O)NC(CO)C(=O)NC(CO)CC(C)C)OC(=O)CC(CCCCCCC)OC(=O)CC(CCCCCCC)OC1OC(C)C(O)C(OC2OC(C)C(O)C(OC(C)=O)C2O)C1O (stereo not drawn) | 24.6 | 
64 | O=C(CP(=O)(c1ccccc1)c1ccccc1)c1cccc(C(=O)CP(=O)(c2ccccc2)c2ccccc2)c1 | > 100 | 
65 | CCc1[nH]c(=O)nc(N)c1-c1ccc(N2CCCCC2)c([N+](=O)[O-])c1 | > 100 | 
66 | COC(=O)C(=O)C(C(=O)C(=O)Nc1ccccc1C(N)=O)c1nc2ccc(Cl)cc2[nH]c1=O (stereo not drawn) | > 100 | 
67 | NC(CC(=O)OCc1ccccc1)C(=O)OCc1ccccc1 (stereo not drawn) | > 100 | 
68 | CCC#CC[C@H]1C/C=C2/C(=O)C=C[C@@H]2C/C=C\CCCC(=O)O1 | 3.83 | 1.17

Reference: PubChem BioAssay (NCI)
